Measured values taken from ChEMBL document CHEMBL5357078, “Synthesis and Structural Optimization of ATG4B Inhibitors for the Attenuation of Autophagy in Glioblastoma” (ACS Med Chem Lett, 2024).
Calls of active or inactive are those of the source.

Experiments:
Type in all cases: functional, cell-based
GSC83 [1] = assay: Induction of autophagy in human GSC83 cells assessed as inhibition of ATG4B-induced LC3-1 to LC3-2 conversion incubated for 72 hrs by immunoblotting analysis
GSC576 [2] = assay: Antiproliferative activity against human GSC576 cells assessed as reduction in cell viability upto 100 uM incubated for 72 hrs by celltiter glo luminescent assay
GSC83 [3] = assay: Induction of autophagy in human GSC83 cells assessed as degradation of p62/SQSTM1 substrate incubated for 72 hrs by immunoblotting analysis
GSC576 [4] = assay: Induction of autophagy in human GSC576 cells assessed as inhibition of sphere formation upto 10 uM incubated for 7 days; details: time 7.0 day
GSC83 [5] = assay: Antiproliferative activity against human GSC83 cells assessed as reduction in cell viability upto 100 uM incubated for 72 hrs by celltiter glo luminescent assay
GSC83 [6] = assay: Induction of autophagy in human GSC83 cells assessed as inhibition of sphere formation upto 10 uM incubated for 7 days; details: time 7.0 day
GSC576 [7] = assay: Induction of autophagy in human GSC576 cells assessed as degradation of p62/SQSTM1 substrate incubated for 72 hrs by immunoblotting analysis
GSC576 [8] = assay: Induction of autophagy in human GSC576 cells assessed as inhibition of ATG4B-induced LC3-1 to LC3-2 conversion incubated for 72 hrs by immunoblotting analysis
GSC83 [9] = assay: Induction of autophagy in human GSC83 cells assessed as inhibition of sphere formation upto 100 uM incubated for 7 days; details: time 7.0 day
GSC576 [10] = assay: Induction of autophagy in human GSC576 cells assessed as inhibition of sphere formation upto 100 uM incubated for 7 days; details: time 7.0 day

Measured: Activity

S=C(Nc1ccccn1)c1ccc2ccccc2n1
active: GSC83 [1] | GSC576 [2] | GSC83 [3] | GSC576 [4] | GSC83 [5] | GSC83 [6] | GSC576 [7] | GSC576 [8]

S=C(Nc1ccccn1)c1ccccn1
active: GSC83 [1] | GSC83 [9] | GSC83 [3] | GSC576 [10] | GSC576 [7] | GSC576 [8]
